From patent US20250281457A1, “TREATMENT OR PREVENTION OF DENGUE VIRAL INFECTION” (Janssen Pharmaceuticals, Inc., priority 2022, published 2025)

Assay: Safety and tolerability, adverse events (Example 1)
Type: in vivo, human
Description: Safety and tolerability of Compound (a) was evaluated throughout the study, by recording the adverse events (AE) and their grade, as reported by the participants. An AE is any untoward medical occurrence in a subject administered the pharmaceutical formulation comprising Compound (a). […] An AE can therefore be any unfavorable and unintended sign (including an abnormal finding), symptom, or disease temporally associated with the use of the pharmaceutical formulation comprising Compound (a), whether or not related to the administration of the pharmaceutical formulation comprising Compound (a) (definition per International Conference on Harmonisation [ICH].) This includes any occurrence that is new in onset or aggravated in severity or frequency from the baseline condition, or abnormal results of diagnostic procedures, including laboratory test abnormalities. Grade refers to the severity of the AE, according to the below guideline: • Grade 1 Mild: transient or mild discomfort (<48 hours); no medical intervention/therapy required. • Grade 2 Moderate: mild to moderate limitation in activity; some assistance may be needed; no or minimal medical intervention/therapy required. • Grade 3 Severe: marked limitation in activity; some assistance usually required; medical intervention/therapy required; hospitalizations possible. • Grade 4 Potentially Life-threatening: Extreme limitation in activity; significant assistance required; significant medical intervention/therapy required; hospitalization or hospice care probable. All reported AEs with onset during the treatment phase and AEs that have worsened since baseline (ie, treatment-emergent AEs (TEAEs)) were included in the analysis.

[1] = Panel 1 (400 mg fasted: Treatment A oral solution and Treatment B SF1b)
[2] = Panels 1 and 2 (400 mg fasted; oral solution, SF1b, SF2b)

Compound: COc1cc(NC(C(=O)c2c[nH]c3ccc(OC(F)(F)F)cc23)c2ccc(Cl)cc2OC)cc(S(C)(=O)=O)c1 (stereo not shown) [Compound (a)]
- Related adverse events, Grade 1 [1]: two Grade 1 AEs of throat irritation and dermatitis on one subject, and throat irritation and dermaturia in another subject
- Related adverse events, Grade 2 [1]: one Grade 2 AE of headache and dermatitis
- Related adverse events, Grade 1 (Panel 2 (400 mg fasted: Treatment A oral solution and Treatment C SF2b)): two Grade 1 AEs of headache and dermatitis each in one subject
- Grade 1 Treatment Emergent Events, overall [2]: 11
- Grade 2 Treatment Emergent Events, overall [2]: 7
- Grade 3 Treatment Emergent Events, overall [2]: One
- Grade 4 Treatment Emergent Events, overall [2]: No
